Results taken from ChEMBL document CHEMBL4414590, “Discovery of SIAIS178 as an Effective BCR-ABL Degrader by Recruiting Von Hippel-Lindau (VHL) E3 Ubiquitin Ligase” (J Med Chem, 2019).
The source made the active and inactive calls. The rule behind the calls is not given here.

Columns and labels:
[1] = target: von Hippel-Lindau disease tumor suppressor/Tyrosine-protein kinase Yes (Homo sapiens) (UniProt P07947+P40337); experiment: Protac activity against VHL/YES in human K562 cells assessed as reduction in Yes protein levels at 1 to 100 nM incubated for 16 hrs by Western blot analysis; assay type: cell-based
K562 [2] = experiment: Growth inhibition of human K562 cells assessed as reduction in cell density at 20 times IC50 incubated for 12 hrs followed by drug wash-out and incubation in drug-free medium up to 144 hrs by CCK8 assay; assay type: functional, cell-based
[3] = target: T1, von Hippel-Lindau disease tumor suppressor/Tyrosine-protein kinase ABL1/Breakpoint cluster region protein (Homo sapiens, UniProt P00519+P11274+P40337); experiment: Induction of ternary complex formation between VHL and BCR-ABL (unknown origin) expressed in HEK293 cells expressing N-terminal BCR-ABL LgBit fusion protein and N-terminal SmBit-VHL fusion protein incubated for 1 hr by NanoBit technology based luciferase complementation assay; assay type: cell-based
Target sequence in this assay (P00519 whole entry, looked up, the tested form may be a part): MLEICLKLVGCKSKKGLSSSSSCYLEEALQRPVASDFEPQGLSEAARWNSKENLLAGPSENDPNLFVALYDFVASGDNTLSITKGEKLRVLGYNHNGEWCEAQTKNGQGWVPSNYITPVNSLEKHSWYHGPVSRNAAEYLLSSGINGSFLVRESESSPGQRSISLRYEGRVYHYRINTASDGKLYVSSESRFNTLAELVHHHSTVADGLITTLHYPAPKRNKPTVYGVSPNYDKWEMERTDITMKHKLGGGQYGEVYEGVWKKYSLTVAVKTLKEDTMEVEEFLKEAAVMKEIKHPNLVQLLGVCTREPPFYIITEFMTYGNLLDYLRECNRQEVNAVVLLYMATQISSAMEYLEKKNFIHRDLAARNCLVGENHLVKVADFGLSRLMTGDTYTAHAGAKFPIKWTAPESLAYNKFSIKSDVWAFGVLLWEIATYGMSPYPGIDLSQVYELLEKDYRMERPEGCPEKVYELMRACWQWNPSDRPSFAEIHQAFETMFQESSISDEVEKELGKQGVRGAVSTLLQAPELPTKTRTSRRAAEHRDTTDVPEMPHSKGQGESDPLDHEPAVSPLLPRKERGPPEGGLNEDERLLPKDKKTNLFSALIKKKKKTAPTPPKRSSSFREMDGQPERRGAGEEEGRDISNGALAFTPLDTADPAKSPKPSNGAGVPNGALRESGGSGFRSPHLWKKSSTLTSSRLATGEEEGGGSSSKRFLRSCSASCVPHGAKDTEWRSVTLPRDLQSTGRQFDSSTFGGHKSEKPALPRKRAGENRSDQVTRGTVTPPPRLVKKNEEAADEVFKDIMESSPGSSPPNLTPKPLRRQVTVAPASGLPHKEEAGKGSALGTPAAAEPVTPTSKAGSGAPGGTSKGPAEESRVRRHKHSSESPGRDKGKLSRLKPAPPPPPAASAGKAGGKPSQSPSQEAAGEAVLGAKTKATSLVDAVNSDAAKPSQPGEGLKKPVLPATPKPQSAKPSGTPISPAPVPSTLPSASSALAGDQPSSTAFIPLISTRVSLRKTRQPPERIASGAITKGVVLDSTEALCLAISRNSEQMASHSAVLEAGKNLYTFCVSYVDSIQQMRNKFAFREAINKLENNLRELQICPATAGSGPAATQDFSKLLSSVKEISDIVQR
Target sequence in this assay (P11274 whole entry, looked up, the tested form may be a part): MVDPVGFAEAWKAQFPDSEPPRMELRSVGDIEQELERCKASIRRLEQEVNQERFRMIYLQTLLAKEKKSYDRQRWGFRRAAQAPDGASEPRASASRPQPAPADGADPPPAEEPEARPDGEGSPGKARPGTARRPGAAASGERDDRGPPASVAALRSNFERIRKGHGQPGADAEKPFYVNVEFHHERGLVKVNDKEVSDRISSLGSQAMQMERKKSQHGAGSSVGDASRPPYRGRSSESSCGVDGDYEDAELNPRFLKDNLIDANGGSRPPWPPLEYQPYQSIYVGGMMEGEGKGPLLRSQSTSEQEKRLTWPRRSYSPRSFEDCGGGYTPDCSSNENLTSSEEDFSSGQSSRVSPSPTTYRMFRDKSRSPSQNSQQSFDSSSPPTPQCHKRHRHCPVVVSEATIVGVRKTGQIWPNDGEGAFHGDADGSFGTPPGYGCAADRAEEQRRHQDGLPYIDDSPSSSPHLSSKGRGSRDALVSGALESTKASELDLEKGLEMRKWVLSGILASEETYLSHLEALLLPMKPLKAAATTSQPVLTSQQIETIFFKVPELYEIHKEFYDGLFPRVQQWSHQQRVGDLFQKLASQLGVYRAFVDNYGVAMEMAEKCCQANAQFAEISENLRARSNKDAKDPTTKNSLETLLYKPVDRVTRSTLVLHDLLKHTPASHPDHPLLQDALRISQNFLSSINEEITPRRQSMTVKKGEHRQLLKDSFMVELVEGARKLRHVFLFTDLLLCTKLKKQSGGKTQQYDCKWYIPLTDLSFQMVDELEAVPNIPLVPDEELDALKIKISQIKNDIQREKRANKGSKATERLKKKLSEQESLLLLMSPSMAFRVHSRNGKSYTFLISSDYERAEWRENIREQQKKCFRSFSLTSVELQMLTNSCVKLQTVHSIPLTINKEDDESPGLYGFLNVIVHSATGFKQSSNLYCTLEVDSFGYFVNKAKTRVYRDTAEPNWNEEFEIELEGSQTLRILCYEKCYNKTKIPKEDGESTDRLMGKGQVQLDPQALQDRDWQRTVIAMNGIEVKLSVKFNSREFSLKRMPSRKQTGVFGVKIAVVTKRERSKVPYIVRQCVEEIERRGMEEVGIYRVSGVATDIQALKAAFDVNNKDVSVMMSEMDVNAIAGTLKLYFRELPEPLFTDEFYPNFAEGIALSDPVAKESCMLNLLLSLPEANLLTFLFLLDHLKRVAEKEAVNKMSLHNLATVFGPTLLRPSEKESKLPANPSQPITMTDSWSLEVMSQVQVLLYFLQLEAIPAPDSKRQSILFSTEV
Target sequence in this assay (P40337 whole entry, looked up, the tested form may be a part): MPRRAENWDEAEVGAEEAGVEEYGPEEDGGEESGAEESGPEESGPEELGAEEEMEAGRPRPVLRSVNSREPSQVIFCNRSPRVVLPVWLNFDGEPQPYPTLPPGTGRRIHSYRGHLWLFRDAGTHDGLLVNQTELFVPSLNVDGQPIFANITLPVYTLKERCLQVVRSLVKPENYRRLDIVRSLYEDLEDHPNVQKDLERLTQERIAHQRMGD

K562 [4] = experiment: Growth inhibition of human K562 cells incubated for 2 days by CCK8 assay; assay type: functional, cell-based; conditions: K562, 48 h
[5] = tested on: von Hippel-Lindau disease tumor suppressor/Tyrosine-protein kinase ABL1/Breakpoint cluster region protein (Homo sapiens), P00519+P11274+P40337 [G250E]; experiment: Protac activity against VHL/BCR-ABL G250E mutant (unknown origin) expressed in human U937 cells assessed as induction of BCR-ABL degradation incubated for 16 hrs by Western blot analysis; assay type: cell-based
K562 [6] = experiment: Induction of cell death in human K562 cells assessed as reduction in cell viability at 20 times IC50 incubated for 12 hrs followed by drug wash-out and incubation in drug-free medium up to 144 hrs by CCK8 assay; assay type: functional, cell-based
[7] = tested on: von Hippel-Lindau disease tumor suppressor/Tyrosine-protein kinase ABL1/Breakpoint cluster region protein (Homo sapiens), P00519+P11274+P40337 [T315I]; experiment: Protac activity against VHL/BCR-ABL T315I mutant (unknown origin) expressed in human U937 cells assessed as induction of BCR-ABL degradation incubated for 16 hrs by Western blot analysis; assay type: cell-based
U-937 = experiment: Growth inhibition of human U937 cells incubated for 2 days by CCK8 assay; assay type: functional, cell-based
[8] = target: T1, von Hippel-Lindau disease tumor suppressor/Tyrosine-protein kinase ABL1/Breakpoint cluster region protein; experiment: Protac activity against VHL/BCR-ABL in human K562 cells assessed as induction of BCR-ABL degradation at 100 nM incubated up to 24 hrs by Western blot analysis; assay type: cell-based; conditions: TDE = time-dependent effect
Target sequence in this assay (P00519 whole entry, looked up, the tested form may be a part): as the sequence (P00519 whole entry, looked up, the tested form may be a part) above
Target sequence in this assay (P11274 whole entry, looked up, the tested form may be a part): as the sequence (P11274 whole entry, looked up, the tested form may be a part) above
Target sequence in this assay (P40337 whole entry, looked up, the tested form may be a part): as the sequence (P40337 whole entry, looked up, the tested form may be a part) above

[9] = target: T1, von Hippel-Lindau disease tumor suppressor/Tyrosine-protein kinase ABL1/Breakpoint cluster region protein; experiment: Protac activity against VHL/BCR-ABL in NOD/SCID mouse xenografted with luciferse expressing human K562 cells assessed as induction of BCR-ABL degradation at 5 to 15 mg/kg, ip QD for 4 days by Western blotting analysis; assay type: functional, organism-based
Target sequence in this assay (P00519 whole entry, looked up, the tested form may be a part): as the sequence (P00519 whole entry, looked up, the tested form may be a part) above
Target sequence in this assay (P11274 whole entry, looked up, the tested form may be a part): as the sequence (P11274 whole entry, looked up, the tested form may be a part) above
Target sequence in this assay (P40337 whole entry, looked up, the tested form may be a part): as the sequence (P40337 whole entry, looked up, the tested form may be a part) above

[10] = target: von Hippel-Lindau disease tumor suppressor/Tyrosine-protein kinase ABL2 (Homo sapiens) (UniProt P42684+P40337); experiment: Protac activity against VHL/ABL2 in human K562 cells assessed as reduction in ABL2 protein levels at 1 to 100 nM incubated for 16 hrs by Western blot analysis; assay type: cell-based
K562 [11] = experiment: Effect on LYN protein level in human K562 cells at 100 nM incubated for 16 hrs by multiplexed tandem mass spectrometry; assay type: ADME, cell-based; conditions: k562, 16 h, 0.1 µM
[12] = target: T1, von Hippel-Lindau disease tumor suppressor/Tyrosine-protein kinase ABL1/Breakpoint cluster region protein; experiment: Induction of ternary complex formation between VHL and BCR-ABL (unknown origin) expressed in HEK293 cells expressing N-terminal BCR-ABL LgBit fusion protein and N-terminal SmBit-VHL fusion protein at 1 uM incubated for 1 hr by NanoBit technology based luciferase complementation assay; assay type: cell-based
Target sequence in this assay (P00519 whole entry, looked up, the tested form may be a part): as the sequence (P00519 whole entry, looked up, the tested form may be a part) above
Target sequence in this assay (P11274 whole entry, looked up, the tested form may be a part): as the sequence (P11274 whole entry, looked up, the tested form may be a part) above
Target sequence in this assay (P40337 whole entry, looked up, the tested form may be a part): as the sequence (P40337 whole entry, looked up, the tested form may be a part) above

[13] = target: T1, von Hippel-Lindau disease tumor suppressor/Tyrosine-protein kinase ABL1/Breakpoint cluster region protein; experiment: Protac activity against VHL/BCR-ABL in human K562 cells assessed as induction of BCR-ABL degradation by Western blot analysis; assay type: cell-based
[14] = target: Tyrosine-protein kinase ABL1 (Homo sapiens) (UniProt P00519); experiment: Binding affinity to human phosphorylated ABL1 (S229 to K512 residues) expressed in mammalian expression system assessed as residual binding level at 10 uM by Kinomescan method relative to control
[15] = target: von Hippel-Lindau disease tumor suppressor/Proto-oncogene tyrosine-protein kinase Src (Homo sapiens) (UniProt P12931+P40337); experiment: Protac activity against VHL/Src in human K562 cells assessed as reduction in Src protein levels at 1 to 100 nM incubated for 16 hrs by Western blot analysis; assay type: cell-based
[16] = target: von Hippel-Lindau disease tumor suppressor/Platelet-derived growth factor receptor beta (Homo sapiens) (UniProt P09619+P40337); experiment: Protac activity against VHL/PDGFRbeta in human K562 cells assessed as reduction in PDGFRbeta protein levels at 1 to 100 nM incubated for 16 hrs by Western blot analysis; assay type: cell-based
[17] = target: von Hippel-Lindau disease tumor suppressor/Tyrosine-protein kinase Lck (Homo sapiens) (UniProt P06239+P40337); experiment: Protac activity against VHL/LCK in human K562 cells assessed as reduction in Lck protein levels at 1 to 100 nM incubated for 16 hrs by Western blot analysis; assay type: cell-based
[18] = Toxicity in NOD/SCID mouse xenografted with luciferse expressing human K562 cells assessed as effect on body weight at 5 to 15 mg/kg, ip QD for 12 days; assay type: organism-based; conditions: in vivo, 288 h
Mus musculus = experiment: Inhibition of BCR-ABL phosphorylation in NOD/SCID mouse xenografted with luciferse expressing human K562 cells at 5 to 15 mg/kg, ip QD for 4 days by Western blotting analysis; assay type: functional, organism-based
[19] = target: T1, von Hippel-Lindau disease tumor suppressor/Tyrosine-protein kinase ABL1/Breakpoint cluster region protein; experiment: Protac activity against VHL/BCR-ABL in human K562 cell lysates assessed as induction of pull down of endogenous ABL at 10 to 100 nM in presence of excess immobilized GST-VBC bait by GST-pull down assay; assay type: subcellular; conditions: Lysate
Target sequence in this assay (P00519 whole entry, looked up, the tested form may be a part): as the sequence (P00519 whole entry, looked up, the tested form may be a part) above
Target sequence in this assay (P11274 whole entry, looked up, the tested form may be a part): as the sequence (P11274 whole entry, looked up, the tested form may be a part) above
Target sequence in this assay (P40337 whole entry, looked up, the tested form may be a part): as the sequence (P40337 whole entry, looked up, the tested form may be a part) above

[20] = target: Bcr/Abl fusion protein (Homo sapiens) (UniProt P00519+P11274); experiment: Inhibition of BCR-ABL phosphorylation in human KU812 cells at 1 to 30 nM by Western blot analysis; assay type: cell-based
SUP-B15 = experiment: Growth inhibition of human SUP-B15 cells incubated for 2 days by CCK8 assay; assay type: functional, cell-based
[21] = target: T1, von Hippel-Lindau disease tumor suppressor/Tyrosine-protein kinase ABL1/Breakpoint cluster region protein; experiment: Induction of ternary complex formation between VHL and BCR-ABL (unknown origin) expressed in HEK293 cells expressing N-terminal BCR-ABL LgBit fusion protein and N-terminal SmBit-VHL fusion protein pre-treated with 10 uM dasatinib for 2 hrs followed by compound addition at 1 uM and further incubated for 1 hr by NanoBit technology based luciferase complementation assay; assay type: cell-based
Target sequence in this assay (P00519 whole entry, looked up, the tested form may be a part): as the sequence (P00519 whole entry, looked up, the tested form may be a part) above
Target sequence in this assay (P11274 whole entry, looked up, the tested form may be a part): as the sequence (P11274 whole entry, looked up, the tested form may be a part) above
Target sequence in this assay (P40337 whole entry, looked up, the tested form may be a part): as the sequence (P40337 whole entry, looked up, the tested form may be a part) above

Sequence of von Hippel-Lindau disease tumor suppressor/Tyrosine-protein kinase Yes (Homo sapiens) (P07947 whole entry, looked up): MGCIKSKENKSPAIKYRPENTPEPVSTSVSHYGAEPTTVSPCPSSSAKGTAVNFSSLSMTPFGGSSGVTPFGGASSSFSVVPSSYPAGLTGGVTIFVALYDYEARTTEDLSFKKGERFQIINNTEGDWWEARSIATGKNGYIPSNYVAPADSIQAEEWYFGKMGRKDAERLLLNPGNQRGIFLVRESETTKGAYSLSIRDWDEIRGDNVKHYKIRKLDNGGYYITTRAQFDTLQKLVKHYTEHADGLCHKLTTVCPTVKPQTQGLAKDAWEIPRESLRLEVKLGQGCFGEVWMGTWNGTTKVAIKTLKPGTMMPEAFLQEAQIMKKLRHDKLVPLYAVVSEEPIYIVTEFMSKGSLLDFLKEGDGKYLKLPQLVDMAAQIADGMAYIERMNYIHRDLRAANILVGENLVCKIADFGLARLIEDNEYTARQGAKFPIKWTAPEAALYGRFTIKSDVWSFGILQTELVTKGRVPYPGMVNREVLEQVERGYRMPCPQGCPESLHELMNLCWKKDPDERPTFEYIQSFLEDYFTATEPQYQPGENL
Sequence of von Hippel-Lindau disease tumor suppressor/Tyrosine-protein kinase Yes (Homo sapiens) (P40337 whole entry, looked up): as the sequence (P40337 whole entry, looked up, the tested form may be a part) above
Sequence of von Hippel-Lindau disease tumor suppressor/Proto-oncogene tyrosine-protein kinase Src (Homo sapiens) (P12931 whole entry, looked up): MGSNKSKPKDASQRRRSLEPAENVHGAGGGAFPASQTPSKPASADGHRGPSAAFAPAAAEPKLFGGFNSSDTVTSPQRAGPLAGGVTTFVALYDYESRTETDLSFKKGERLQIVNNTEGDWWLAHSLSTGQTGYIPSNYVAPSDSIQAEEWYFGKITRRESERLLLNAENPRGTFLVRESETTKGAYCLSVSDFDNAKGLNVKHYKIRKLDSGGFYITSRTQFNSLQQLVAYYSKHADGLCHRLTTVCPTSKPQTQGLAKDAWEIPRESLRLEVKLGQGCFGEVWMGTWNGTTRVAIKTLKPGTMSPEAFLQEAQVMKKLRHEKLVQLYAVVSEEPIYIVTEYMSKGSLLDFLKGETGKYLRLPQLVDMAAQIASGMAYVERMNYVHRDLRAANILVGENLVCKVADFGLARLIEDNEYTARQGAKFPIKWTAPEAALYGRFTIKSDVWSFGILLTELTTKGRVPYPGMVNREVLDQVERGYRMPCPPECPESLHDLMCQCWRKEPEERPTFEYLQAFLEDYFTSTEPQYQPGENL
Sequence of von Hippel-Lindau disease tumor suppressor/Proto-oncogene tyrosine-protein kinase Src (Homo sapiens) (P40337 whole entry, looked up): as the sequence (P40337 whole entry, looked up, the tested form may be a part) above

Cc1nc(Nc2ncc(C(=O)Nc3c(C)cccc3Cl)s2)cc(N2CCN(C(=O)CCCCCCC(=O)N[C@H](C(=O)N3C[C@H](O)C[C@H]3C(=O)NCc3ccc(-c4scnc4C)cc3)C(C)(C)C)CC2)n1
Activity [1]: inactive
growth inhibition (GI) (K562 [2]): Active
Activity [3]: Active
IC50 (K562 [4]): 0.024 µM
Activity [5]: Dose-dependent effect
Activity (K562 [6]): Active
Activity [7]: inactive
growth inhibition (GI) (U-937): inactive
Activity [8]: Tde
Activity [9]: Dose-dependent effect
Activity [10]: Dose-dependent effect
Activity (K562 [11]): Non-Toxic
Activity [12]: Active
Activity [13]: Dose-dependent effect
DC50 [13]: 0.0085 µM
Activity [14]: Active
Activity [15]: Dose-dependent effect
Activity [16]: Dose-dependent effect
Activity [17]: inactive
Activity [18]: Non-Toxic
inhibition (Mus musculus): Active
Activity [19]: Dose-dependent effect
inhibition [20]: Active
growth inhibition (GI) (SUP-B15): Active
Activity [21]: inactive
